According to ChEMBL document CHEMBL1150413, “A series of potent and selective, triazolylphenyl-based histone deacetylases inhibitors with activity against pancreatic cancer cells and Plasmodium falciparum” (J Med Chem, 2008):

Experiments:
[1] = Cytotoxicity against human Hup T3 cells after 72 hrs by MTT assay; type: functional, cell-based; settings: HuP-T3, 72 h
[2] = biological target: T1, Polyamine deacetylase HDAC10 (Homo sapiens, UniProt Q969S8)
T1 sequence (Q969S8 whole entry): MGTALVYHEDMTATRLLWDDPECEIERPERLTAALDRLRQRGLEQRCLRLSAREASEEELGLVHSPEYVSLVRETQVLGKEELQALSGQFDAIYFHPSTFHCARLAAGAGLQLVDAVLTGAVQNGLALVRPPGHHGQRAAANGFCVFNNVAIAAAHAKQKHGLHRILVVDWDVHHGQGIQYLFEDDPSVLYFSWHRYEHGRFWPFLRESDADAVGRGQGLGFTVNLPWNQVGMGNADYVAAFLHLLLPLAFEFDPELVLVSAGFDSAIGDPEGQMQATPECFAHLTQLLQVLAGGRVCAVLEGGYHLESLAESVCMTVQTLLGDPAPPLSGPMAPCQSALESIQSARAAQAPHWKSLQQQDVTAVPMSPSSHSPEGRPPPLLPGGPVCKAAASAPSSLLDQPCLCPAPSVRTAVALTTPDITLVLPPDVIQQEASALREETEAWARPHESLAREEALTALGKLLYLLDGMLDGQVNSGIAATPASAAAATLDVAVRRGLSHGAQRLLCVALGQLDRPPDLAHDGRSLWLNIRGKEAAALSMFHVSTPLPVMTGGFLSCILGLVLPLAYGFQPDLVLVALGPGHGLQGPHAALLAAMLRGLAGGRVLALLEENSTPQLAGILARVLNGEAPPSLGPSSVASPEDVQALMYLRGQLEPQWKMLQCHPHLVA

Plasmodium falciparum [3] = experiment: Antimalarial activity against Plasmodium falciparum D6 by hypoxanthine uptake; type: functional, organism-based
BXPC-3 = experiment: Cytotoxicity against human BxPC3 cells after 72 hrs by MTT assay; type: functional, cell-based; settings: BXPC-3, 72 h
Plasmodium falciparum [4] = experiment: microbe, parasite or virus in culture; settings: TM91C235
Description: Antimalarial activity against Plasmodium falciparum TM91C235 by hypoxanthine uptake

Histone deacetylase 1 = Histone deacetylase 1 (Homo sapiens, UniProt Q13547)
[5] = Cytotoxicity against human SU 86.86 cells after 72 hrs by MTT assay; type: functional, cell-based; settings: SU.86.86, 72 h
[6] = Selectivity for HDAC10 over HDAC1
[7] = biological target: T2, Protein deacetylase HDAC6 (Homo sapiens, UniProt Q9UBN7)
T2 sequence (Q9UBN7 whole entry): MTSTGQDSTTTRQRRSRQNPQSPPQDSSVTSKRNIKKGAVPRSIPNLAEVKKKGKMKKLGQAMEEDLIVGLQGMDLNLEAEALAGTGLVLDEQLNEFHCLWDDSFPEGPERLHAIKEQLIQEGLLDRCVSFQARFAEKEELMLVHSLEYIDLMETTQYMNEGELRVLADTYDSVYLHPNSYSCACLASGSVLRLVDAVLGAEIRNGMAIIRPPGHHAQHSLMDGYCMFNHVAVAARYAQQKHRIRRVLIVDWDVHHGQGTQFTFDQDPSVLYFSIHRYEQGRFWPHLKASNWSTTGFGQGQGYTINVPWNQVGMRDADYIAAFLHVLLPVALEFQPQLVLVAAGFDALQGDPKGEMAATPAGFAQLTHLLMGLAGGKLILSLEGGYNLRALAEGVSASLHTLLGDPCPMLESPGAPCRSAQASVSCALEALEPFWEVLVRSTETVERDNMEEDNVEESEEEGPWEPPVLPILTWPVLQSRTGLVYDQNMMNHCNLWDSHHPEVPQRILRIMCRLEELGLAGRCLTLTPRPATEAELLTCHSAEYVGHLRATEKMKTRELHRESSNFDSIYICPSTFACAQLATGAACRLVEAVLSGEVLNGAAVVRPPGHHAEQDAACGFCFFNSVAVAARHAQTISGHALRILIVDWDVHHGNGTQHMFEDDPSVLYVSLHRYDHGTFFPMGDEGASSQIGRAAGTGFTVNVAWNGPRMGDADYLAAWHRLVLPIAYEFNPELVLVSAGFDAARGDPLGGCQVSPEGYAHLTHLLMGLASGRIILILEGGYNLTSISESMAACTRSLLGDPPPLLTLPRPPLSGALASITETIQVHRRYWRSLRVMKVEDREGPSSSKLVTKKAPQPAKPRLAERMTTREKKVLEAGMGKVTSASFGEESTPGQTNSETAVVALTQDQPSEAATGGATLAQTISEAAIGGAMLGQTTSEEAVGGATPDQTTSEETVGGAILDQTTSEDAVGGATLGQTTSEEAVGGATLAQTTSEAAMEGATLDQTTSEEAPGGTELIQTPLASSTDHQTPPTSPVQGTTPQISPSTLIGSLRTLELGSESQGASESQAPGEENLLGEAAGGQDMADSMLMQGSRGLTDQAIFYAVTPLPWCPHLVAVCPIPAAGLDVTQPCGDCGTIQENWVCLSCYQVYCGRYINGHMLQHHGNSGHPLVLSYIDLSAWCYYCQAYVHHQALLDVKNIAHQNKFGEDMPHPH

Histone deacetylase 2 = Histone deacetylase 2 (Homo sapiens, UniProt Q92769)
Histone deacetylase 8 = biological target: T3, Histone deacetylase 8 (Homo sapiens, UniProt Q9BY41)
T3 sequence (Q9BY41 whole entry): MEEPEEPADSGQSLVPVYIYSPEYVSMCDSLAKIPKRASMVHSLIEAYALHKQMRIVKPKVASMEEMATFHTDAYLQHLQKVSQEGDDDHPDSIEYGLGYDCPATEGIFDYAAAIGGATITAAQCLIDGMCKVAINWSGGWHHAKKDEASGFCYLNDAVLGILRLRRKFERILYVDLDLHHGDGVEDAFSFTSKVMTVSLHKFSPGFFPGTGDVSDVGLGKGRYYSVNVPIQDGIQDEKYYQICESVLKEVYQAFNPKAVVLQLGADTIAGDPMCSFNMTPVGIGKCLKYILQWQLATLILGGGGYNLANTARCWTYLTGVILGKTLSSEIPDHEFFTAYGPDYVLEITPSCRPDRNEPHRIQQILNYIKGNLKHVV

Plasmodium falciparum [8] = experiment: Antimalarial activity against Plasmodium falciparum TM90C2A by hypoxanthine uptake; type: functional, organism-based
Plasmodium falciparum [9] = experiment: Antimalarial activity against Plasmodium falciparum W2 by hypoxanthine uptake; type: functional, organism-based
[10] = Cytotoxicity against human Panc 04.03 cells after 72 hrs by MTT assay; type: functional, cell-based; settings: Panc 04.03, 72 h
Histone deacetylase 3 = Histone deacetylase 3 (Homo sapiens, UniProt O15379)
MIA PaCa-2 = experiment: Cytotoxicity against human Mia Paca2 cells after 72 hrs by MTT assay; type: functional, cell-based; settings: MIA PaCa-2, 72 h

Sequence of Histone deacetylase 2 (Q92769 whole entry): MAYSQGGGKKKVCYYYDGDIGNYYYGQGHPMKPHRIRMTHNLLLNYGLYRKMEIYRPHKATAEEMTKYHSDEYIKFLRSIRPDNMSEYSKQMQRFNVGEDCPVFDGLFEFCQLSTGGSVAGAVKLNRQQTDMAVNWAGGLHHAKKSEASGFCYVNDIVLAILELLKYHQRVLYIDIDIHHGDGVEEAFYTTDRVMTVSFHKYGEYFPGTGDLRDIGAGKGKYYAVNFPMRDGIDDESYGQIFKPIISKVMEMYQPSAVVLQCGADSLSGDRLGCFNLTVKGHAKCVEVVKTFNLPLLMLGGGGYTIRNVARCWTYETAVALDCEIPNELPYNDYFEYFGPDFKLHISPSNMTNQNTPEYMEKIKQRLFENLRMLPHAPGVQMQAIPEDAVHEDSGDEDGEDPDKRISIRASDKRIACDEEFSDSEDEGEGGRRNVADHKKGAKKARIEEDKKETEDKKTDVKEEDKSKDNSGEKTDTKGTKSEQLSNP
Sequence of Histone deacetylase 1 (Q13547 whole entry): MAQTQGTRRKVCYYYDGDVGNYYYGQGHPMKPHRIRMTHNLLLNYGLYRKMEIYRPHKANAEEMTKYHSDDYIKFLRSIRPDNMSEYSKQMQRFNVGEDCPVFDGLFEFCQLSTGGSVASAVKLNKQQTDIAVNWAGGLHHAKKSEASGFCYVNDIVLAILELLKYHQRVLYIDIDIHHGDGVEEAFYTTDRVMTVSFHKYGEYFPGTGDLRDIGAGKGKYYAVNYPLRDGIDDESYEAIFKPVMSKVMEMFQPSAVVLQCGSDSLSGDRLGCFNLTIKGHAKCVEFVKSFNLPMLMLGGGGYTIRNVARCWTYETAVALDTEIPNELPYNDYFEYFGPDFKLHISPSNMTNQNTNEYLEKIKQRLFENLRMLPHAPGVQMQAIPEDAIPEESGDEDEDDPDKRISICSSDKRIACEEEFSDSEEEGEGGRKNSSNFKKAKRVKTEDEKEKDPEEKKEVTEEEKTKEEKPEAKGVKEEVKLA
Sequence of Histone deacetylase 3 (O15379 whole entry): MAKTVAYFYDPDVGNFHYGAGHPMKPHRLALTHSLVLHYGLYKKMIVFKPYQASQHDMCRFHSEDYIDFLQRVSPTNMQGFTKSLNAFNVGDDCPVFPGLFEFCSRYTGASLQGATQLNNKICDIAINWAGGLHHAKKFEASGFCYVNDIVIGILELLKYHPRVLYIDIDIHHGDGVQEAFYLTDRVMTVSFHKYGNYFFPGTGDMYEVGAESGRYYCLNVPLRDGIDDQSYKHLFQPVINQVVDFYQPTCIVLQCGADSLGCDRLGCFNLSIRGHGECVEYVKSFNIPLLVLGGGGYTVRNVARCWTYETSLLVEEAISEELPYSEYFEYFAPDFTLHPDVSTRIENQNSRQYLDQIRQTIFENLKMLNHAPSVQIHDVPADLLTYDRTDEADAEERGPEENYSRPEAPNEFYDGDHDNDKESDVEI

O=C(CCCCCCC(=O)Nc1cccc(-c2cnnn2CC(O)c2cccc(Br)c2)c1)NO (configuration not stated) gave an IC50 [1] of 42000 nM, an IC50 [2] of 15.8 nM and an IC50 (Plasmodium falciparum [3]) of 180 nM. For the same compound, the IC50 (BXPC-3) was 43000 nM, the IC50 (Plasmodium falciparum [4]) was 390 nM and the IC50 (Histone deacetylase 1) was 23.4 nM. The IC50 [5] was 23000 nM, the Ratio IC50 [6] was 1.5 and the IC50 [7] was 2.8 nM. For the same compound, the IC50 (Histone deacetylase 2) was 116 nM, the IC50 (Histone deacetylase 8) was 406 nM and the IC50 (Plasmodium falciparum [8]) was 120 nM. For the same compound, the IC50 (Plasmodium falciparum [9]) was 380 nM, the IC50 [10] was 25000 nM and the IC50 (Histone deacetylase 3) was 4.2 nM. For the same compound, the IC50 (MIA PaCa-2) was 11000 nM.
Compound O=C(CCCCCCC(=O)Nc1ccccc1)NO [VORINOSTAT] has an IC50 [1] of 800 nM.
Work on O=C(CCCCCCC(=O)Nc1ccc(-c2cnnn2Cc2ccc(F)cc2)cc1)NO yielded an IC50 [1] of 4000 nM, an IC50 [2] of 64.7 nM and an IC50 (Plasmodium falciparum [3]) of 240 nM. For the same compound, the IC50 (BXPC-3) was 11000 nM, the IC50 (Plasmodium falciparum [4]) was 290 nM and the IC50 (Histone deacetylase 1) was 52.4 nM. For the same compound, the IC50 [5] was 10000 nM, the Ratio IC50 [6] was 0.8 and the IC50 [7] was 7.3 nM. The IC50 (Histone deacetylase 2) was 57.4 nM, the IC50 (Histone deacetylase 8) was 2010 nM and the IC50 (Plasmodium falciparum [8]) was 120 nM. The IC50 (Plasmodium falciparum [9]) was 460 nM, the IC50 [10] was 2000 nM and the IC50 (Histone deacetylase 3) was 16.4 nM. It also gave an IC50 (MIA PaCa-2) of 8000 nM.
In the case of O=C(CCCCCCC(=O)Nc1cccc(-c2cn(Cc3ccccc3)nn2)c1)NO, the IC50 [1] is reported as 1000 nM, the IC50 [2] is reported as 18.5 nM and the IC50 (Plasmodium falciparum [3]) is reported as 140 nM. The IC50 (BXPC-3) was 3000 nM, the IC50 (Plasmodium falciparum [4]) was 220 nM and the IC50 (Histone deacetylase 1) was 14.5 nM. For the same compound, the IC50 [5] was 2000 nM, the Ratio IC50 [6] was 0.8 and the IC50 [7] was 3.1 nM. The IC50 (Histone deacetylase 2) was 43 nM, the IC50 (Histone deacetylase 8) was 1990 nM and the IC50 (Plasmodium falciparum [8]) was 190 nM. The IC50 (Plasmodium falciparum [9]) was 160 nM, the IC50 [10] was 2000 nM and the IC50 (Histone deacetylase 3) was 7.9 nM. The IC50 (MIA PaCa-2) was < 500 nM.
Compound O=C(CCCCCCC(=O)Nc1cccc(-c2cnnn2-c2ccccc2)c1)NO has an IC50 [1] of 8000 nM, an IC50 [2] of 24.5 nM and an IC50 (Plasmodium falciparum [3]) of 320 nM. The IC50 (BXPC-3) was 10000 nM, the IC50 (Plasmodium falciparum [4]) was 500 nM and the IC50 (Histone deacetylase 1) was 33.4 nM. For the same compound, the IC50 [5] was 4000 nM, the Ratio IC50 [6] was 1.4 and the IC50 [7] was 7.5 nM. It also gave an IC50 (Histone deacetylase 2) of 167 nM, an IC50 (Histone deacetylase 8) of 942 nM and an IC50 (Plasmodium falciparum [8]) of 330 nM. The IC50 (Plasmodium falciparum [9]) was 730 nM, the IC50 [10] was 2000 nM and the IC50 (Histone deacetylase 3) was 7.7 nM. It also gave an IC50 (MIA PaCa-2) of 3000 nM.
For O=C(CCCCCCC(=O)Nc1ccc(-c2cn(CC(O)c3cccc(Br)c3)nn2)cc1)NO (configuration not stated), the IC50 [1] was 12000 nM, the IC50 [2] was 86.5 nM and the IC50 (Plasmodium falciparum [3]) was 80 nM. It also gave an IC50 (BXPC-3) of 18000 nM, an IC50 (Plasmodium falciparum [4]) of 110 nM and an IC50 (Histone deacetylase 1) of 69.2 nM. For the same compound, the IC50 [5] was 12000 nM, the Ratio IC50 [6] was 0.8 and the IC50 [7] was 4.4 nM. For the same compound, the IC50 (Histone deacetylase 2) was 143 nM, the IC50 (Histone deacetylase 8) was 3130 nM and the IC50 (Plasmodium falciparum [8]) was 190 nM. For the same compound, the IC50 (Plasmodium falciparum [9]) was 390 nM, the IC50 [10] was 10000 nM and the IC50 (Histone deacetylase 3) was 25.3 nM. It also gave an IC50 (MIA PaCa-2) of 600 nM.
For O=C(CCCCCCC(=O)Nc1ccc(-c2cnnn2CC(O)c2cccc(Br)c2)cc1)NO (configuration not stated), the IC50 [1] was 46000 nM, the IC50 [2] was 74.8 nM and the IC50 (Plasmodium falciparum [3]) was 230 nM. It also gave an IC50 (BXPC-3) of 25000 nM, an IC50 (Plasmodium falciparum [4]) of 390 nM and an IC50 (Histone deacetylase 1) of 69.9 nM. The IC50 [5] was 42000 nM, the Ratio IC50 [6] was 0.9 and the IC50 [7] was 4.2 nM. For the same compound, the IC50 (Histone deacetylase 2) was 216 nM, the IC50 (Histone deacetylase 8) was 737 nM and the IC50 (Plasmodium falciparum [8]) was 230 nM. The IC50 (Plasmodium falciparum [9]) was > 950 nM, the IC50 [10] was 44000 nM and the IC50 (Histone deacetylase 3) was 15.1 nM. For the same compound, the IC50 (MIA PaCa-2) was 37000 nM.
